Read-outs that look alike come from different tables or passages of the source.
Legend:
Assay in all cases: In vitro MIC, Mueller-Hinton agar, inoculum 10^6 cells/ml
Assay type in all cases: cell-based
Morganella morganii = system: Morganella morganii
Description: (§1) Table 6 is a comparison of the in vitro antibacterial activities of Compound 29 and the vinyl homolog thereof FK-482 against clinically important pathogens. Thirty-seven organisms were more than 4-fold more susceptible to Compound 29 than to FK-482. FK-482 has the following formula and is described by Takaya, et al. in U.S. Pat. No. 4,559,334 patented Dec. 17, 1985 (filed Oct. 20, 1983). [drawing 14]
(§2) *; Geometric mean of MIC (μg/ml)
(§3) Mueller-Hinton agar Inoculum size; 10^6 cells/ml

Proteus mirabilis = system: Proteus mirabilis
Description: as §1, §2, §3

Enterobacter aerogenes = settings: Klebsiella aerogenes
Description: as §1, §2, §3

Proteus vulgaris = system: Proteus vulgaris
Description: as §1, §2, §3

Serratia species = system: Serratia species
Description: as §1, §2, §3

Citrobacter freundii = system: Citrobacter freundii
Description: as §1, §2, §3

Serratia marcescens = system: Serratia marcescens
Description: as §1, §2, §3

Enterobacter cloacae = system: Enterobacter cloacae
Description: as §1, §2, §3

Providencia rettgeri = system: Providencia rettgeri
Description: as §1, §2, §3

Measured: MIC

C=CC1=C(C(=O)O)N2C(=O)[C@@H](NC(=O)/C(=N\O)c3csc(N)n3)[C@H]2SC1 [FK-482, reference compound]
0.4 µg/mL: Proteus vulgaris; strain A 9436, read-out: MIC
25 µg/mL: Morganella morganii; (GM) of the Morganella morganii strains, read-out: Geometric mean of MIC | Enterobacter aerogenes; strain A20994, read-out: MIC | Enterobacter aerogenes; strain A21043, read-out: MIC | Enterobacter aerogenes; strain A21044, read-out: MIC | Proteus vulgaris; strain A 9526, read-out: MIC | Proteus vulgaris; strain A 9699, read-out: MIC | Serratia species; strain 6-330, read-out: MIC | Serratia species; strain 6-427, read-out: MIC | Serratia marcescens; strain A20222, read-out: MIC
< 0.0063 µg/mL: Providencia rettgeri; strain A 9637, read-out: MIC
6.3 µg/mL: Enterobacter aerogenes; strain A20941, read-out: MIC | Enterobacter aerogenes; strain A20943, read-out: MIC | Enterobacter aerogenes; strain A20958, read-out: MIC | Enterobacter aerogenes; strain A20966, read-out: MIC | Enterobacter aerogenes; strain A20971, read-out: MIC | Enterobacter aerogenes; strain A21013, read-out: MIC | Enterobacter aerogenes; strain A21039, read-out: MIC | Enterobacter aerogenes; strain A21120, read-out: MIC | Enterobacter aerogenes; strain A21130-1, read-out: MIC | Enterobacter aerogenes; strain A21131, read-out: MIC | Enterobacter aerogenes; strain A21155, read-out: MIC | Enterobacter aerogenes; strain A21158, read-out: MIC | Enterobacter aerogenes; strain A21503, read-out: MIC | Proteus vulgaris; (GM) of the Proteus vulgaris strains, read-out: Geometric mean of MIC | Citrobacter freundii; strain A22160, read-out: MIC | Enterobacter cloacae; strain A20364, read-out: MIC | Providencia rettgeri; strain A20645, read-out: MIC
9.8 µg/mL: Enterobacter aerogenes; (GM) of the Enterobacter aerogenes strains, read-out: Geometric mean of MIC
1.6 µg/mL: Enterobacter aerogenes; strain A21038, read-out: MIC | Enterobacter aerogenes; strain A21152, read-out: MIC
0.14 µg/mL: Proteus mirabilis; (GM) of the Proteus mirabilis strains, read-out: Geometric mean of MIC
> 50 µg/mL: Morganella morganii; strain A 9636, read-out: MIC | Enterobacter aerogenes; strain A20940, read-out: MIC | Enterobacter aerogenes; strain A20985, read-out: MIC | Enterobacter aerogenes; strain A21118, read-out: MIC | Proteus vulgaris; strain AKH-26, read-out: MIC | Serratia species; (GM) of the Serratia species strains, read-out: Geometric mean of MIC | Serratia species; strain 6-920, read-out: MIC | Serratia species; strain 7-255, read-out: MIC | Serratia species; strain 7-454, read-out: MIC | Serratia species; strain 7-2322, read-out: MIC | Serratia species; strain 8-185, read-out: MIC | Serratia species; strain 8-513, read-out: MIC | Serratia species; strain 8-785, read-out: MIC | Serratia species; strain 8-1537, read-out: MIC | Serratia species; strain 9-50, read-out: MIC | Serratia species; strain 9-690, read-out: MIC | Citrobacter freundii; strain A21312, read-out: MIC | Serratia marcescens; strain A20333, read-out: MIC | Serratia marcescens; strain A20334, read-out: MIC | Serratia marcescens; strain A20459, read-out: MIC | Serratia marcescens; strain A20461, read-out: MIC | Enterobacter cloacae; strain A 9655, read-out: MIC | Enterobacter cloacae; strain A 9659, read-out: MIC | Enterobacter cloacae; strain A20344, read-out: MIC | Enterobacter cloacae; strain A22551, read-out: MIC
0.025 µg/mL: Providencia rettgeri; strain A20921, read-out: MIC
21 µg/mL: Enterobacter cloacae; (GM) of the Enterobacter cloacae strains, read-out: Geometric mean of MIC
0.07 µg/mL: Providencia rettgeri; (GM) of the Providencia rettgeri strains, read-out: Geometric mean of MIC
0.1 µg/mL: Proteus mirabilis; strain A 9702, read-out: MIC | Proteus mirabilis; strain A20119, read-out: MIC | Proteus mirabilis; strain A20454, read-out: MIC | Proteus mirabilis; strain A21222, read-out: MIC | Providencia rettgeri; strain A15167 (second line), read-out: MIC | Providencia rettgeri; strain A21205, read-out: MIC | Providencia rettgeri; strain A21270, read-out: MIC
4.1 µg/mL: Citrobacter freundii; (GM) of the Citrobacter freundii strains, read-out: Geometric mean of MIC
12.5 µg/mL: Morganella morganii; IFO3843, strain IFO 3843 MS-1, read-out: MIC | Morganella morganii; strain A20455, read-out: MIC | Enterobacter aerogenes; strain A20961, read-out: MIC | Serratia marcescens; strain A20019, read-out: MIC | Serratia marcescens; strain A20335, read-out: MIC | Serratia marcescens; strain A20336, read-out: MIC
50 µg/mL: Enterobacter aerogenes; strain A21036, read-out: MIC | Citrobacter freundii; strain A22177, read-out: MIC | Serratia marcescens; strain A20460, read-out: MIC
0.013 µg/mL: Providencia rettgeri; IFO3850, strain IFO 3850 MS-1, read-out: MIC | Providencia rettgeri; strain A15167 (first line), read-out: MIC | Providencia rettgeri; strain A20920, read-out: MIC
0.8 µg/mL: Proteus vulgaris; strain HX-19 MS-1, read-out: MIC | Citrobacter freundii; strain A22142, read-out: MIC | Citrobacter freundii; strain A22161, read-out: MIC | Citrobacter freundii; strain A22175, read-out: MIC | Enterobacter cloacae; strain A20650, read-out: MIC
31 µg/mL: Serratia marcescens; (GM) of the Serratia marcescens strains, read-out: Geometric mean of MIC
3.1 µg/mL: Enterobacter aerogenes; strain A20996, read-out: MIC | Enterobacter aerogenes; strain A21037, read-out: MIC | Proteus vulgaris; strain OX-19 MS-1, read-out: MIC | Citrobacter freundii; strain A22140, read-out: MIC | Citrobacter freundii; strain A22141, read-out: MIC | Citrobacter freundii; strain A22166, read-out: MIC | Citrobacter freundii; strain A22176, read-out: MIC | Serratia marcescens; strain A20442, read-out: MIC | Enterobacter cloacae; strain A20464, read-out: MIC | Providencia rettgeri; strain A20915, read-out: MIC
0.2 µg/mL: Proteus mirabilis; IFO3849, strain IFO 3849 MS-1, read-out: MIC | Proteus mirabilis; strain A 9554, read-out: MIC | Proteus mirabilis; strain A 9716, read-out: MIC | Proteus mirabilis; strain A20342, read-out: MIC
